# Literature values as cited in patent US11033514B2 (priority 2016, dated 2021).
# [1] = Nguyen et al. (2009), oral dose 5 grams
Structure (SMILES),"Half life in blood (in vivo, po) [h]","Plasma level (in vivo, po) [nM]","Half-Life (Goldberg et al. (2003), oral dose 25 mg) [h]",% of orally administered dose of resveratrol bioavailable [1],Unconjugated/Free Resveratrol in plasma (Bioavailability) [1] [nmol/L]
Oc1ccc(/C=C/c2cc(O)cc(O)c2)cc1 [Synthetic resveratrol],0.5,5 to 40,,,
"Oc1ccc(/C=C/c2cc(O)cc(O)c2)cc1 [resveratrol, 3,5,4′-trihydroxy-trans-stilbene]",,,2,(0.012% of orally,2400
